Assays:
[1] = biological target: T1, Cholesteryl ester transfer protein (Homo sapiens, UniProt P11597); assay: Inhibition of human plasma derived CETP; format: cell-free
T1 sequence (P11597 whole entry): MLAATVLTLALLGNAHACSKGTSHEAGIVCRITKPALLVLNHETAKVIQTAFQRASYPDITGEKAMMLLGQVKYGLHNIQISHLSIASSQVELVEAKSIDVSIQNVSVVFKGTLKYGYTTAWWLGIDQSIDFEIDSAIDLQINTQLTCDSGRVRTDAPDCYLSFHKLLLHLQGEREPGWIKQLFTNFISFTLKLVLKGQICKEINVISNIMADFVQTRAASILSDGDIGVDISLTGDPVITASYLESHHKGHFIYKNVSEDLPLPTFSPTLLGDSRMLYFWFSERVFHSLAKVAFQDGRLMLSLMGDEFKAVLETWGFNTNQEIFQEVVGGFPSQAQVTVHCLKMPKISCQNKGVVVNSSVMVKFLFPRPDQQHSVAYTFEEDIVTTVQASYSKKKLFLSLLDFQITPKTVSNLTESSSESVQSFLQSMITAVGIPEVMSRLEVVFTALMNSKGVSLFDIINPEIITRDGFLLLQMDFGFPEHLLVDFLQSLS

[2] = biological target: T2, Cholesteryl ester transfer protein (Homo sapiens) (UniProt P11597); assay: Inhibition of human plasma derived CETP relative to control; parameters: concentration or dose not given beside the values; details: concentration not given here
T2 sequence (whole entry): T1 sequence (P11597 whole entry)

[3] = biological target: Cytochrome P450 2E1 (Homo sapiens, UniProt P05181); assay: Inhibition of CYP2E1 from human liver microsomes; format: ADME
[4] = biological target: Cytochrome P450 2C19 (Homo sapiens, UniProt P33261); assay: Inhibition of CYP2C19 from human liver microsomes; format: ADME
[5] = Permeability across human Caco-2 cell; format: ADME, cell-based; details: read-out: permeability
[6] = AUC in Sprague-Dawley rat at 2 mg/kg, iv; format: ADME, organism-based; parameters: dose 2 mg/kg, route intravenous; details: plasma
[7] = Plasma clearance in Sprague-Dawley rat at 2 mg/kg, iv; format: ADME, organism-based; parameters: dose 2 mg/kg, route intravenous
[8] = biological target: Cytochrome P450 2C9 (Homo sapiens, UniProt P11712); assay: Inhibition of CYP2C9 from human liver microsomes; format: ADME
[9] = biological target: Cytochrome P450 3A4 (Homo sapiens, UniProt P08684); assay: Inhibition of CYP3A4 from human liver microsomes; format: ADME
[10] = biological target: Cytochrome P450 2D6 (Homo sapiens, UniProt P10635); assay: Inhibition of CYP2D6 from human liver microsomes; format: ADME
[11] = Volume of distribution at steady state in Sprague-Dawley rat at 2 mg/kg, iv; format: ADME, organism-based; parameters: dose 2 mg/kg, route intravenous; details: in vivo, read-out: Vdss
[12] = biological target: T3, Cytochrome P450 1A2 (Homo sapiens, UniProt P05177); assay: Inhibition of CYP1A2 from human liver microsomes; format: ADME
T3 sequence (P05177 whole entry): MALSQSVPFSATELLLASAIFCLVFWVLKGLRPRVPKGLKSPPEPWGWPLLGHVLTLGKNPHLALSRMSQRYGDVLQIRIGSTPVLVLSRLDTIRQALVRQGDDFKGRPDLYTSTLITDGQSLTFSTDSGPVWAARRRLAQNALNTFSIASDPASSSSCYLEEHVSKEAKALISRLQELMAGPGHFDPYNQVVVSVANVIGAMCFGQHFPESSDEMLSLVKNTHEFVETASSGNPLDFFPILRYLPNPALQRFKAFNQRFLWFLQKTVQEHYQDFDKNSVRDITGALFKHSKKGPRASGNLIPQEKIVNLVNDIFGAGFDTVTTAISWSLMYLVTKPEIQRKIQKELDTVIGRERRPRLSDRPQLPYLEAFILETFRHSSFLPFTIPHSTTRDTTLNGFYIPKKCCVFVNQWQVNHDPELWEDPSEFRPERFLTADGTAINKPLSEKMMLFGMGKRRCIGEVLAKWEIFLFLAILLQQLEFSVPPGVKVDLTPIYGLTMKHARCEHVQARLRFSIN

[13] = Oral bioavailability in Sprague-Dawley rat at 10 mg/kg; format: ADME, organism-based; details: in vivo
[14] = AUC in Sprague-Dawley rat at 10 mg/kg, po; format: ADME, organism-based; parameters: dose 10 mg/kg, route oral; details: plasma
[15] = Tmax in Sprague-Dawley rat at 10 mg/kg, po; format: ADME, organism-based; parameters: dose 10 mg/kg, route oral; details: in vivo
[16] = Metabolic stability in human liver microsomes assessed as half life; format: ADME, Microsome
[17] = Cmax in Sprague-Dawley rat at 10 mg/kg, po; format: ADME, organism-based; parameters: dose 10 mg/kg, route oral; details: in vivo
[18] = Half life in Sprague-Dawley rat at 10 mg/kg, po; format: ADME, organism-based; parameters: dose 10 mg/kg, route oral; details: in vivo
[19] = Half life in Sprague-Dawley rat at 2 mg/kg, iv; format: ADME, organism-based; parameters: dose 2 mg/kg, route intravenous; details: in vivo
[20] = biological target: T4, Cytochrome P450 2A6 (Homo sapiens, UniProt P11509); assay: Inhibition of CYP2A6 from human liver microsomes; format: ADME
T4 sequence (P11509 whole entry): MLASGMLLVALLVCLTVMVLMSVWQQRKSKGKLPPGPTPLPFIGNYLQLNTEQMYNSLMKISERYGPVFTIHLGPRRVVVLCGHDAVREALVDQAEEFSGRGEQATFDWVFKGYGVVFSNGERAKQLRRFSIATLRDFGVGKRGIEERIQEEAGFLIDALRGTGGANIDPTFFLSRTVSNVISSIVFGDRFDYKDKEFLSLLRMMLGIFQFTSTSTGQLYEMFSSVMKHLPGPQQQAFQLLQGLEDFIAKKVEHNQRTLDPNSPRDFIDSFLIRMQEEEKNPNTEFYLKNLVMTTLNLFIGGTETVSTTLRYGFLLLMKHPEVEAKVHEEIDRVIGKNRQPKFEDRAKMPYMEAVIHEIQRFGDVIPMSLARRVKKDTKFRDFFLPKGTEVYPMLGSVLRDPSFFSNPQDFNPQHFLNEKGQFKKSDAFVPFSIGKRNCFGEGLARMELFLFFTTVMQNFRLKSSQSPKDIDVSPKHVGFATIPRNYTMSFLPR

[21] = Cmax in Sprague-Dawley rat at 2 mg/kg, iv; format: ADME, organism-based; parameters: dose 2 mg/kg, route intravenous; details: in vivo

Cytochrome P450 3A4, sequence (P08684 whole entry): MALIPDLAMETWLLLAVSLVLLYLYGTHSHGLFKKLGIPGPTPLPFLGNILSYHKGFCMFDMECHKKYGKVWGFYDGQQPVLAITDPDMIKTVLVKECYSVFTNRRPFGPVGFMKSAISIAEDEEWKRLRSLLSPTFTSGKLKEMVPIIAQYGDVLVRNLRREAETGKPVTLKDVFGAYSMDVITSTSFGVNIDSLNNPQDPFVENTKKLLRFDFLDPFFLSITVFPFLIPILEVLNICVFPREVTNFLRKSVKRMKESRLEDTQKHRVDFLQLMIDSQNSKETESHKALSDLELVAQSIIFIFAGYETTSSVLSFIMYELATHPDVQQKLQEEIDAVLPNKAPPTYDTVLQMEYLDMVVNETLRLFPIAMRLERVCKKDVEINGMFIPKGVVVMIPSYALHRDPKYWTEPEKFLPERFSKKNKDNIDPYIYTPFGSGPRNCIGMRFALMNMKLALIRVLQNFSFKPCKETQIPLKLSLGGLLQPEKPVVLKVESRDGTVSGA
Cytochrome P450 2C19, sequence (P33261 whole entry): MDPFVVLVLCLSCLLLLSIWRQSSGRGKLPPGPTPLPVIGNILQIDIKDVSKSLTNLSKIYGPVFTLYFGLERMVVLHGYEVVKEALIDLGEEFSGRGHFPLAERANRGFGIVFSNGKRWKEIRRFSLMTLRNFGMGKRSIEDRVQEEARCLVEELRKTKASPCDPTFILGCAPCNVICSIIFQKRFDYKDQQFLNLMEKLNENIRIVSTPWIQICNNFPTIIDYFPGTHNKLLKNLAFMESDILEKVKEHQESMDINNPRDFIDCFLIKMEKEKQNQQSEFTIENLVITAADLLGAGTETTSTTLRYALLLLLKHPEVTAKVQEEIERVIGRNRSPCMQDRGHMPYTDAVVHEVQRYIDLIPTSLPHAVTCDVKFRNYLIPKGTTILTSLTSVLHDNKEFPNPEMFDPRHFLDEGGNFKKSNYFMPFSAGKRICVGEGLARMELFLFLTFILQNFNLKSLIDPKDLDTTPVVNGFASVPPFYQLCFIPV
Cytochrome P450 2E1, sequence (P05181 whole entry): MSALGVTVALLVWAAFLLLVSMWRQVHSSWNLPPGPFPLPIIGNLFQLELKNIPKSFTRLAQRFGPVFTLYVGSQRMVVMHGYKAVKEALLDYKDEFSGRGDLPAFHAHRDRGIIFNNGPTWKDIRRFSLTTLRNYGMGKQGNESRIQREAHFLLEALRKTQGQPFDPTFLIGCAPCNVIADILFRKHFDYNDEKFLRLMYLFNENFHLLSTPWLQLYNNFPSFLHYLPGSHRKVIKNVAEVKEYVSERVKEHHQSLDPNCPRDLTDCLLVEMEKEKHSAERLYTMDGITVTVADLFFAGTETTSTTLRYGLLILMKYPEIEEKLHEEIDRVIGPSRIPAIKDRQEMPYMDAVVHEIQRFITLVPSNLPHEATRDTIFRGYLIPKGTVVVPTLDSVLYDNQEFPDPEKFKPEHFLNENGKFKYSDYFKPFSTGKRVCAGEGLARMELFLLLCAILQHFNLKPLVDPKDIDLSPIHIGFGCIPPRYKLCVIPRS
Cytochrome P450 2D6, sequence (P10635 whole entry): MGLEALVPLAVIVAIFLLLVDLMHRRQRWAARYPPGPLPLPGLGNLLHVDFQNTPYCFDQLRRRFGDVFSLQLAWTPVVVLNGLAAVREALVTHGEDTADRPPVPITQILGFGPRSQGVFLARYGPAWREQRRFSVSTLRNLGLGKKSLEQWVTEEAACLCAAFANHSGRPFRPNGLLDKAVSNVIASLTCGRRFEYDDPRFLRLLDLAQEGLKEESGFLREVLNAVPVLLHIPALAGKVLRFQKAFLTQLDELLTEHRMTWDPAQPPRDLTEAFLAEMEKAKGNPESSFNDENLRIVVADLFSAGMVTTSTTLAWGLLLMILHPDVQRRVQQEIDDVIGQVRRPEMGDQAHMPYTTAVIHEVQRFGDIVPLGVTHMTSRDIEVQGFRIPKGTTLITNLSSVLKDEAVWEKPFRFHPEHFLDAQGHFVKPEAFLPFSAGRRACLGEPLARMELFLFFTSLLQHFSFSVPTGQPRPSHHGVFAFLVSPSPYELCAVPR
Cytochrome P450 2C9, sequence (P11712 whole entry): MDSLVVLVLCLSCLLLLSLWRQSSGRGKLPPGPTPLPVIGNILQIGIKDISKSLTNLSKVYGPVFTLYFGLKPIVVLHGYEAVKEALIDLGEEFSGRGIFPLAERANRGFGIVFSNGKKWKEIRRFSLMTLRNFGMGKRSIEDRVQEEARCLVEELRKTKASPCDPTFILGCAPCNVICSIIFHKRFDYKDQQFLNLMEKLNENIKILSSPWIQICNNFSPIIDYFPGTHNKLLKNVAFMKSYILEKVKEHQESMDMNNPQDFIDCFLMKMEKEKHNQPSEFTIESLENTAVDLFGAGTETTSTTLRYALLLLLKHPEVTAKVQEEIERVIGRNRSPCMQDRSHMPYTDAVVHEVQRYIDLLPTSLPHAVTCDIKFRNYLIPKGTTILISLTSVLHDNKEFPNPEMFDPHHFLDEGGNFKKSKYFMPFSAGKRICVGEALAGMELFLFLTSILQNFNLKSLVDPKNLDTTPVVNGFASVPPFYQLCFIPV

| Structure (SMILES) | IC50 [1] [nM] | inhibition [2] [%] | further results |
| --- | --- | --- | --- |
| OC(CN1c2cccc(-c3cccc(Cl)c3Cl)c2CCC1c1cccc(OC(F)(F)C(F)F)c1)C(F)(F)F (single isomer, unassigned; diastereomer 2) | 400 | – | – |
| OC(CN1c2cccc(-c3cccnc3)c2CCC1c1cccc(OC(F)(F)C(F)F)c1)C(F)(F)F (single isomer, unassigned; diastereomer 1) | > 3000 | 47 | – |
| OC(CN1c2cccc(-c3cccs3)c2CCC1c1cccc(OC(F)(F)C(F)F)c1)C(F)(F)F (single isomer, unassigned; diastereomer 1) | 317 | 63 | – |
| OC(CN1c2cccc(-c3ccc(OC(F)(F)F)cc3)c2CCC1c1cccc(OC(F)(F)C(F)F)c1)C(F)(F)F (single isomer, unassigned; diastereomer 1) | 500 | 85 | – |
| CC(C)Oc1cccc(-c2cccc3c2CCC(c2cccc(OC(F)(F)C(F)F)c2)N3CC(O)C(F)(F)F)c1 (configuration not stated) | 345 | 55 | – |
| OC(CN1c2cccc(-c3cccc(OC(F)(F)F)c3)c2CCC1c1cccc(OC(F)(F)C(F)F)c1)C(F)(F)F (single isomer, unassigned; 20) | 300 | – | – |
| OC(CN1c2cccc(-c3cccc(OC(F)(F)F)c3)c2CCC1c1ccccc1)C(F)(F)F (single isomer, unassigned; diastereomer 1) | – | 21 | – |
| O[C@H](CN1c2cccc(-c3cccc(OC(F)(F)F)c3)c2CC[C@@H]1c1cccc(OC(F)(F)F)c1)C(F)(F)F [TETRAHYDROQUINOLINE B] | > 3000 | 62 | – |
| OC(CCl)CN1c2cccc(-c3cccc(OC(F)(F)F)c3)c2CCC1c1cccc(OC(F)(F)F)c1 (single isomer, unassigned; diastereomer 2) | – | 0 | – |
| OC(CN1c2cccc(-c3cccc(OC(F)(F)F)c3)c2CCC1c1cccc(OC(F)(F)F)c1)C(F)(F)F (stereo in doubt; 53) | – | 34 | – |

The next lines start with results.

| IC50 [1] [nM] | inhibition [2] [%] | Structure (SMILES) | further results |
| --- | --- | --- | --- |
| 235 | – | N#Cc1cccc(-c2cccc3c2CCC(c2cccc(OC(F)(F)C(F)F)c2)N3CC(O)C(F)(F)F)c1 (single isomer, unassigned; diastereomer 1) | – |
| 143 | – | OC(CN1c2cccc(-c3cccc(OC(F)(F)F)c3)c2CCC1c1cccc(C(F)(F)F)c1)C(F)(F)F (stereo in doubt; 48) | – |
| 64 | – | OC(CN1c2cccc(-c3cccc(Cl)c3)c2CCC1c1cccc(OC(F)(F)C(F)F)c1)C(F)(F)F (single isomer, unassigned; diastereomer 1) | – |
| 125 | – | OC(CN1c2cccc(-c3cccc(OC(F)(F)F)c3)c2CCC1c1cccc(OC(F)(F)F)c1)C(F)(F)F (stereo in doubt; 52) | – |
| 39 | 85 | O[C@@H](CN1c2cccc(-c3cccc(OC(F)(F)F)c3)c2CC[C@@H]1c1cccc(OC(F)(F)F)c1)C(F)(F)F [TETRAHYDROQUINOLINE A] | Activity [3]: Not Active; Activity [4]: Not Active; Papp [5]: 4.7 ×10⁻⁶ cm/s; AUC [6]: 18900 ng·h/mL; clearance [7]: 1.8 mL/min/kg; Activity [8]: Not Active; Activity [9]: Not Active; Activity [10]: Not Active; Vd [11]: 0.36 L/kg; Activity [12]: Not Active; bioavailability [13]: 31%; AUC [14]: 31300 ng·h/mL; Tmax [15]: 6 h; half-life [16]: > 2.13 h; Cmax [17]: 950 ng/mL; half-life [18]: 28 h; half-life [19]: 17.4 h; Activity [20]: Not Active; Cmax [21]: 31400 ng/mL |
| 277 | 63 | CC(C)c1cccc(-c2cccc3c2CCC(c2cccc(OC(F)(F)C(F)F)c2)N3CC(O)C(F)(F)F)c1 (single isomer, unassigned; diastereomer 1) | – |
| 33 | – | OC(CN1c2cccc(-c3cccc(OC(F)(F)F)c3)c2CCC1c1cccc(OC(F)(F)C(F)F)c1)C(F)(F)F (single isomer, unassigned; 19) | – |
| 125 | 68 | C[C@@H](O)CN1c2cccc(-c3cccc(OC(F)(F)F)c3)c2CC[C@@H]1c1cccc(OC(F)(F)F)c1 | – |
| 117 | – | OC(CN1c2cccc(-c3cccc(F)c3)c2CCC1c1cccc(OC(F)(F)C(F)F)c1)C(F)(F)F (single isomer, unassigned; diastereomer 1) | – |
| 126 | – | COc1cccc(-c2cccc3c2CCC(c2cccc(OC(F)(F)C(F)F)c2)N3CC(O)C(F)(F)F)c1 (single isomer, unassigned; diastereomer 1) | – |

Source: ChEMBL document CHEMBL1138445, “Design and synthesis of potent inhibitors of cholesteryl ester transfer protein (CETP) exploiting a 1,2,3,4-tetrahydroquinoline platform” (Bioorg Med Chem Lett, 2009)
